Reference: patent publication US20140187593A1, “DIAGNOSTIC TEST AND TREATMENT FOR A NE[…]” (priority 2012, published 2014)

System: patients with VMAT2 mutation
Experiment: Clinical response of the index case to vitamin B6 or folinic acid
Assay type: in vivo, human
Description: The index case was a person with global developmental delay and abnormal movements. They had first been brought to medical attention with hypotonia, loss of acquired head control, and paroxysmal stereotyped episodes of persistent eye deviation and crying lasting hours. Video-EEG monitoring had excluded seizures, and a symptom diagnosis of oculogyric crisis had been made. Development had been normal initially, but had slowed after presentation. […] […] […] They had axial hypotonia and appendicular hypertonia specifically involving extensor muscles of upper and lower extremities. Deep tendon reflexes were 2+/4 and plantars flexor. […] Gait was parkinsonian with typical shuffling, posture was stooped, and postural reflexes diminished. They walked with bilateral alternating dystonia of hands and feet with intermittent toe walking and foot inversion, and was unable to tandem walk.

Question: How did the “Clinical improvement of symptoms” value turn out when `Nc1nc(=O)c2c([nH]1)NCC(CNc1ccc(C(=O)N[C@@H](CCC(=O)O)C(=O)O)cc1)N2C=O` (mixture of isomers) [folinic acid] was run?
Answer: no improvement

Question: Which “Clinical improvement of symptoms” value does the source give for `Cc1ncc(CO)c(CO)c1O.Cl` [vitamin B6] here?
Answer: no improvement
